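A five-concentration, 48-hour dose response in 96-well plates underlies each endpoint, interpolated linearly between surrounding concentrations. Abbreviation: GI50, concentration required for 50% inhibition of growth.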 Active and inactive are the calls of the source. Cut-off read from the data, not from the text of the source: active = GI50 up to about 1.1 µM and inactive = higher.
Experiments:
Experiment in all cases: NCI-60 cell line screen, 48 h
[1] = system: COLO 205
[2] = system: SK-OV-3
[3] = system: NCI-H460
[4] = system: OVCAR-4
[5] = system: M19-MEL
[6] = system: U-251
[7] = system: EKVX
[8] = system: HCC 2998
[9] = system: M14
[10] = system: A549
[11] = system: SF-268
[12] = system: UO-31
[13] = system: ACHN
[14] = system: DMS-114
[15] = system: HCT-116
[16] = system: MOLT-4
[17] = system: HOP-62
[18] = system: Malme-3M
[19] = system: OVCAR-3
[20] = system: OVCAR-5
[21] = system: SN12C
[22] = system: NCI-H23
[23] = system: SF-539
[24] = system: SNB-75
[25] = system: XF498
[26] = system: CCRF-CEM
[27] = system: HT-29
[28] = system: SNB-19
[29] = system: DLD-1
[30] = system: SK-MEL-2
[31] = system: NCI-H522
[32] = system: SW-620
[33] = system: TK-10
[34] = system: RPMI-8226
[35] = system: A498
[36] = system: UACC-257
[37] = system: SK-MEL-28
[38] = system: KM12
[39] = system: 786-0
[40] = system: KM-20L2
[41] = system: LXFL 529
[42] = system: OVCAR-8
[43] = system: SK-MEL-5
[44] = system: K562
[45] = system: CAKI-1
[46] = system: SNB-78
[47] = system: SF-295
[48] = system: IGROV-1
[49] = system: UACC-62
[50] = system: HCT-15
[51] = system: HOP-18
[52] = system: HL-60
[53] = system: DMS-273
[54] = system: NCI-H226
[55] = system: HOP-92

For `COc1ccc(CCn2c(=O)c3ccccc3n(C)c2=O)cc1`, the GI50 [1] was 13.1 µM (inactive), the GI50 [2] was 14.6 µM (inactive) and the GI50 [3] was 60.1 µM (inactive). The GI50 [4] was > 100 µM (inactive), the GI50 [5] was 19.3 µM (inactive) and the GI50 [6] was 66.8 µM (inactive). The GI50 [7] was 60.4 µM (inactive), the GI50 [8] was 21 µM (inactive) and the GI50 [9] was 26.1 µM (inactive). The GI50 [10] was 50.9 µM (inactive), the GI50 [11] was 56.4 µM (inactive) and the GI50 [12] was 40.4 µM (inactive). The GI50 [13] was > 100 µM (inactive), the GI50 [14] was 11.2 µM (inactive) and the GI50 [15] was 38.7 µM (inactive). For the same compound, the GI50 [16] was 33.8 µM (inactive), the GI50 [17] was 26.4 µM (inactive) and the GI50 [18] was 48 µM (inactive). For the same compound, the GI50 [19] was 34.4 µM (inactive), the GI50 [20] was > 100 µM (inactive) and the GI50 [21] was 80.7 µM (inactive). For the same compound, the GI50 [22] was 48.6 µM (inactive), the GI50 [23] was 41.6 µM (inactive) and the GI50 [24] was 25.9 µM (inactive). For the same compound, the GI50 [25] was 37.2 µM (inactive), the GI50 [26] was 23.7 µM (inactive) and the GI50 [27] was 23.3 µM (inactive). The GI50 [28] was > 100 µM (inactive), the GI50 [29] was 28.6 µM (inactive) and the GI50 [30] was 20.5 µM (inactive). The GI50 [31] was 24.2 µM (inactive), the GI50 [32] was 15.9 µM (inactive) and the GI50 [33] was 54.8 µM (inactive). The GI50 [34] was 39 µM (inactive), the GI50 [35] was 62.2 µM (inactive) and the GI50 [36] was 61.7 µM (inactive). The GI50 [37] was 57.5 µM (inactive), the GI50 [38] was 8.77 µM (inactive) and the GI50 [39] was 67.1 µM (inactive). For the same compound, the GI50 [40] was 63.4 µM (inactive), the GI50 [41] was 26.1 µM (inactive) and the GI50 [42] was 58.6 µM (inactive). For the same compound, the GI50 [43] was 31 µM (inactive), the GI50 [44] was 4.21 µM (inactive) and the GI50 [45] was 38.5 µM (inactive). For the same compound, the GI50 [46] was 36.5 µM (inactive), the GI50 [47] was 30.2 µM (inactive) and the GI50 [48] was > 100 µM (inactive). For the same compound, the GI50 [49] was 24.2 µM (inactive).
For `Cc1cccc(C)c1NC(=O)CCc1n[nH]c(=S)o1`, the GI50 [1] was 30.8 µM (inactive), the GI50 [2] was > 100 µM (inactive) and the GI50 [3] was > 100 µM (inactive). For the same compound, the GI50 [4] was > 100 µM (inactive), the GI50 [50] was 78.5 µM and the GI50 [5] was > 100 µM (inactive). For the same compound, the GI50 [6] was > 100 µM (inactive), the GI50 [7] was > 100 µM (inactive) and the GI50 [8] was > 100 µM (inactive). The GI50 [9] was > 100 µM (inactive), the GI50 [10] was 88.5 µM (inactive) and the GI50 [11] was > 100 µM (inactive). The GI50 [12] was > 100 µM (inactive), the GI50 [13] was > 100 µM (inactive) and the GI50 [51] was > 100 µM (inactive). The GI50 [14] was 39.1 µM (inactive), the GI50 [15] was 20.4 µM (inactive) and the GI50 [16] was > 100 µM (inactive). The GI50 [17] was > 100 µM (inactive), the GI50 [18] was > 100 µM (inactive) and the GI50 [52] was > 100 µM (inactive). The GI50 [53] was 44.7 µM (inactive), the GI50 [19] was > 100 µM (inactive) and the GI50 [54] was > 100 µM (inactive). For the same compound, the GI50 [20] was > 100 µM (inactive), the GI50 [21] was > 100 µM (inactive) and the GI50 [22] was > 100 µM (inactive). The GI50 [23] was > 100 µM (inactive), the GI50 [24] was > 100 µM (inactive) and the GI50 [55] was > 100 µM (inactive). The GI50 [26] was > 100 µM (inactive), the GI50 [27] was > 100 µM (inactive) and the GI50 [28] was > 100 µM (inactive). For the same compound, the GI50 [29] was 67.9 µM (inactive), the GI50 [31] was > 100 µM (inactive) and the GI50 [32] was 18.1 µM (inactive). For the same compound, the GI50 [33] was > 100 µM (inactive), the GI50 [34] was 22.2 µM (inactive) and the GI50 [35] was > 100 µM (inactive). For the same compound, the GI50 [36] was > 100 µM (inactive), the GI50 [37] was > 100 µM (inactive) and the GI50 [38] was > 100 µM (inactive). For the same compound, the GI50 [39] was 71.9 µM (inactive), the GI50 [40] was > 100 µM (inactive) and the GI50 [41] was > 100 µM (inactive). For the same compound, the GI50 [42] was > 100 µM (inactive), the GI50 [43] was > 100 µM (inactive) and the GI50 [44] was 36.2 µM (inactive). For the same compound, the GI50 [45] was > 100 µM (inactive), the GI50 [46] was > 100 µM (inactive) and the GI50 [47] was > 100 µM (inactive). For the same compound, the GI50 [48] was > 100 µM (inactive) and the GI50 [49] was > 100 µM (inactive).

Source: ChEMBL document CHEMBL1201862, “PubChem BioAssay data set” (2004)
